Assay results: patent US10828315B2 (Madrigal Pharmaceuticals, Inc., priority 2013, dated 2020)
Where two headings read alike, the source gives them in different places.

Columns and labels:
[1] = Metabolite profiling and identification; type: in vitro ADME; set-up: key: —: Not detected; conditions: for Metabolite N-dealkylation + glucuronidation: M+1 527.3; for Metabolite Sulfation: M+1 542.3; for Metabolite Hydrolysis (SN-38): M+1 393.3; for Metabolite Hydrolysis (SDC-TRAP-0062): M+1 462.3; for Metabolite Hydrolysis (SN-38) + glucuronidation: M+1 569.3; for Metabolite Hydrolysis (SDC-TRAP-0062) + glucuronidation: M+1 638.3; for Metabolite Hydrolysis (SDC-TRAP-0063): M+1 880.3; for Metabolite Hydrolysis (SDC-TRAP-0063) + glucuronidation: M+1 1056.4; for Metabolite Glucuronidation: M+1 1136.4
Description: Metabolite Profiling and Identification: Metabolite profiling/identification for SDC-TRAP-0063 (M+1:880.3)

[2] = female, SCID, mouse, in vivo
Description: Using the 10 mM stock solutions of the SDC-TRAP molecule and its Hsp90i binding moiety and effector moiety in DMSO, spiking solutions were prepared at 0.025, 0.05, 0.1, 0.5, 1, 5, 10, 50, 100, 250, and 500 μM in DMSO. 5 μL of each spiking solution was added to a 96-deep well plate.
Quality control standards were prepared from 5 μL of 0.1, 1, and 10 μM calibration standard spiking solution added in triplicate into 96-deep well plate and adding 50 μL of matrix (plasma or homogenized tumor).
To prepare test samples, test plasma was diluted as needed using blank plasma.
Tumor samples were pulverized in liquid nitrogen, weighed, and homogenized in PBS at 5× volume to sample weight. 50 μL of unknown plasma or homogenized tumor sample was mixed with 5 μL of DMSO. The samples were extracted by precipitating calibration standards, QC standards, and unknown samples with 200 μL of internal standard solution. The samples were mixed by vortex at room temperature for approximately 1.5 minutes, then centrifuge at 2-8° C. 150 μL of supernatant was collected and 25 μL of water added. Samples were mixed and analyzed by LC-MS/MS.
Samples of plasma, heart and tumor were excised from a euthanized mouse, homogenized in PBS at 5 times tissue weight and diluted in 5 μL DMSO/50 μL sample. Prior to analysis, 55 μL samples and calibration standards were precipitated in 200 μL methanol in 96-well plates. Samples were mixed on a vortex mixer for 1.5 minutes at 1500 rpm at room temperature, then centrifuged at 4400 rpm for 10 minutes at 8° C. 150 μL of each supernatant was transferred to a well of a new 96-well plate, and 25 μL of water was added and mixed with the sample. […] For the analysis of samples from female SCID mice, a gradient of solvent A (water/0.1% formic acid) and B (acetonitrile/0.1% formic acid) was used as in Table 2 below.
Various SDC-TRAP molecules and appropriate controls were administered to mice and after various time points the plasma and tumor concentration of these molecules was determined.

[3] = Mouse plasma stability protocol, up to 1 h (Examples 16-18); conditions: for % Remaining (1 h, 37° C.): mouse plasma; for % Remaining (1 h): % Remaining of parent after 1 h incubation in mouse plasma at 37° C. (10 μM)

For `CC(C)c1cc(-c2nnc(O)n2-c2ccc3c(ccn3CCC3CCNCC3)c2)c(O)cc1O` [SDC-TRAP-0062], the “Metabolite N-dealkylation + glucuronidation” value ([1]; Hepatocytes Dog) was “√”, the “Metabolite N-dealkylation + glucuronidation” value ([1]; Hepatocytes Human) was “√” and the “Metabolite N-dealkylation + glucuronidation” value ([1]; Hepatocytes Monkey) was “—”. For the same molecule, the “Metabolite N-dealkylation + glucuronidation” value ([1]; Hepatocytes Mouse) was “√”, the “Metabolite Sulfation” value ([1]; Hepatocytes Mouse) was “—” and the “Metabolite N-dealkylation + glucuronidation” value ([1]; Hepatocytes Rat) was “—”. The “Metabolite Sulfation” value ([1]; Hepatocytes Rat) was “√”.

With `CC(C)c1cc(-c2nnc(O)n2-c2ccc3c(ccn3CCC3CCNCC3)c2)c(O)cc1O` [DP-1] the “Tumor Conc.” value ([2]; 24 h) was 0.404 nmol/g of tissue, the “Tumor Conc.” value ([2]; 48 h) was 1.06 nmol/g of tissue and the “Tumor Conc.” value ([2]; […]) was 0.00758 nmol/g of tissue.

With `CCNC(=O)c1nnc(-c2cc(C(C)C)c(O)cc2O)n1-c1ccc(OC2CCN(C(=O)C3CCCCN3C(=O)Oc3ccc4nc5c(c(CC)c4c3)Cn3c-5cc4c(c3=O)COC(=O)[C@]4(O)CC)CC2)cc1` (stereo partly drawn) [SDC-TRAP-0216, (S)-4,11-diethyl-4-hydroxy-3,14-dioxo-3,4,12,14-tetrahydro-1H-pyrano[3′,4′:6,7]indolizino[1,2-b]quinolin-9-yl 2-(4-(4-(3-(2,4-dihydroxy-5-isopropylphenyl)-5-(ethylcarbamoyl)-4H-1,2,4-triazol-4-yl)phenoxy)piperidine-1-carbonyl)piperidine-1-carboxylate] the “% Remaining (1 h, 37° C.)” value [3] was 67.7%.

For `CCc1c2c(nc3ccc(OC(=O)N4CCC(N(C)CCNC(=O)c5nnc(-c6cc(C(C)C)c(O)cc6O)n5-c5cccnc5)CC4)cc13)-c1cc3c(c(=O)n1C2)COC(=O)C3(O)CC` (stereo not drawn) [SDC-TRAP-0358], the “% Remaining (1 h)” value [3] was 41.0%.

For `CCNC(=O)c1nnc(-c2cc(C(C)C)c(O)cc2O)n1-c1ccc(C(=O)N2CCN(c3ccc(OC(=O)Nc4cccc5c4C(=O)N(C4CCC(=O)NC4=O)C5=O)c(OC)c3)CC2)cc1` (stereo not drawn) [SDC-TRAP-0398, 4-(4-(4-(3-(2,4-dihydroxy-5-isopropylphenyl)-5-(ethylcarbamoyl)-4H-1,2,4-triazol-4-yl)benzoyl)piperazin-1-yl)-2-methoxyphenyl (2-(2,6-dioxopiperidin-3-yl)-1,3-dioxoisoindolin-4-yl)carbamate], the “% Remaining (1 h)” value [3] was 1.40%.

In the case of `CCNC(=O)c1nnc(-c2cc(C(C)C)c(O)cc2O)n1-c1ccc(CN2CCC(C(=O)N3CCC(C(=O)OC4(CC)C(=O)OCc5c4cc4n(c5=O)Cc5c-4nc4ccc(O)cc4c5CC)CC3)CC2)cc1` (stereo not drawn) [SDC-TRAP-0076, 4,11-diethyl-9-hydroxy-3,14-dioxo-3,4,12,14-tetrahydro-1H-pyrano[3′,4′:6,7]indolizino[1,2-b]quinolin-4-yl 1-(1-(4-(3-(2,4-dihydroxy-5-isopropylphenyl)-5-(ethylcarbamoyl)-4H-1,2,4-triazol-4-yl)benzyl)piperidine-4-carbonyl)piperidine-4-carboxylate], the “% Remaining (1 h)” value [3] is reported as 96.0% and the “% Remaining (1 h, 37° C.)” value [3] is reported as 96%.

With `CCc1c2c(nc3ccc(OC(=O)N4CCC(N5CCC(CCn6ccc7ccc(-n8c(O)nnc8-c8cc(C(C)C)c(O)cc8O)cc76)CC5)CC4)cc13)-c1cc3c(c(=O)n1C2)COC(=O)C3(O)CC` (stereo not drawn) [SDC-TRAP-0353, 4,11-diethyl-4-hydroxy-3,14-dioxo-3,4,12,14-tetrahydro-1H-pyrano[3′,4′:6,7]indolizino[1,2-b]quinolin-9-yl 4-(2-(6-(3-(2,4-dihydroxy-5-isopropylphenyl)-5-hydroxy-4H-1,2,4-triazol-4-yl)-1H-indol-1-yl)ethyl)-[1,4′-bipiperidine]-1′-carboxylate] the “% Remaining (1 h)” value [3] was 22.5%.

In the case of `CCc1c2c(nc3ccc(O)cc13)-c1cc3c(c(=O)n1C2)COC(=O)[C@@]3(CC)OC(=O)CN1CCC(CCc2ccc(-n3c(O)nnc3-c3cc(C(C)C)c(O)cc3O)cc2)CC1` [SDC-TRAP-0106, (S)-4,11-diethyl-9-hydroxy-3,14-dioxo-3,4,12,14-tetrahydro-1H-pyrano[3′,4′:6,7]indolizino[1,2-b]quinolin-4-yl 2-(4-(4-(3-(2,4-dihydroxy-5-isopropylphenyl)-5-hydroxy-4H-1,2,4-triazol-4-yl)phenethyl)piperidin-1-yl)acetate], the “% Remaining (1 h)” value [3] is reported as 114%.

In the case of `CCNC(=O)c1noc(-c2cc(C(C)C)c(O)cc2O)c1-c1ccc(CN2CCN(C(=O)Oc3ccc4nc5c(c(CC)c4c3)Cn3c-5cc4c(c3=O)COC(=O)C4(O)CC)CC2)cc1` (stereo not drawn) [SDC-TRAP-0236, 4,11-diethyl-4-hydroxy-3,14-dioxo-3,4,12,14-tetrahydro-1H-pyrano[3′,4′:6,7]indolizino[1,2-b]quinolin-9-yl 4-(4-(5-(2,4-dihydroxy-5-isopropylphenyl)-3-(ethylcarbamoyl)isoxazol-4-yl)benzyl)piperazine-1-carboxylate], the “% Remaining (1 h)” value [3] is reported as 60.8%.

In the case of `CCc1c2c(nc3ccc(OC(=O)N4CCN(S(=O)(=O)N5CCC(CCn6ccc7cc(-n8c(O)nnc8-c8cc(C(C)C)c(O)cc8O)ccc76)CC5)CC4)cc13)-c1cc3c(c(=O)n1C2)COC(=O)C3(O)CC` (stereo not drawn) [SDC-TRAP-0361, 4,11-diethyl-4-hydroxy-3,14-dioxo-3,4,12,14-tetrahydro-1H-pyrano[3′,4′: 6,7]indolizino[1,2-b]quinolin-9-yl 4-((4-(2-(5-(3-(2,4-dihydroxy-5-isopropylphenyl)-5-hydroxy-4H-1,2,4-triazol-4-yl)-1H-indol-1-yl)ethyl)piperidin-1-yl)sulfonyl)piperazine-1-carboxylate], the “% Remaining (1 h)” value [3] is reported as 25.6%.

In the case of `CCNC(=O)c1nnc(-c2cc(C(C)C)c(O)cc2O)n1-c1ccc2c(c1)CN(S(=O)(=O)C1CCN(C(=O)Oc3ccc4nc5c(c(CC)c4c3)Cn3c-5cc4c(c3=O)COC(=O)C4(O)CC)CC1)C2` (stereo not drawn) [SDC-TRAP-0391, 4,11-diethyl-4-hydroxy-3,14-dioxo-3,4,12,14-tetrahydro-1H-pyrano[3′,4:6,7]indolizino[1,2-b]quinolin-9-yl 4-((5-(3-(2,4-dihydroxy-5-isopropylphenyl)-5-(ethylcarbamoyl)-4H-1,2,4-triazol-4-yl)isoindolin-2-yl)sulfonyl)piperidine-1-carboxylate], the “% Remaining (1 h)” value [3] is reported as 15.2%.

In the case of `CCc1c2c(nc3ccc(OC(=O)N4CCC(CCn5ccc6cc(-n7c(O)nnc7-c7cc(C(C)C)c(O)cc7O)ccc65)CC4)cc13)-c1cc3c(c(=O)n1C2)COC(=O)C3(CC)OP(=O)(O)O` (stereo not drawn) [SDC-TRAP-0397, 4,11-diethyl-3,14-dioxo-4-(phosphonooxy)-3,4,12,14-tetrahydro-1H-pyrano[3′,4′: 6,7]indolizino[1,2-b]quinolin-9-yl 4-(2-(5-(3-(2,4-dihydroxy-5-isopropylphenyl)-5-hydroxy-4H-1,2,4-triazol-4-yl)-1H-indol-1-yl)ethyl)piperidine-1-carboxylate], the “Metabolite Hydrolysis (SN-38)” value ([1]; Hepatocytes Dog) is reported as “√”, the “Metabolite Hydrolysis (SDC-TRAP-0062)” value ([1]; Hepatocytes Dog) is reported as “√” and the “Metabolite Hydrolysis (SN-38) + glucuronidation” value ([1]; Hepatocytes Dog) is reported as “—”. The “Metabolite Hydrolysis (SDC-TRAP-0062) + glucuronidation” value ([1]; Hepatocytes Dog) was “—”, the “Metabolite Hydrolysis (SDC-TRAP-0063)” value ([1]; Hepatocytes Dog) was “—” and the “Metabolite Hydrolysis (SDC-TRAP-0063) + glucuronidation” value ([1]; Hepatocytes Dog) was “—”. The “Metabolite Glucuronidation” value ([1]; Hepatocytes Dog) was “—”, the “Metabolite Hydrolysis (SN-38)” value ([1]; Hepatocytes Human) was “√” and the “Metabolite Hydrolysis (SDC-TRAP-0062)” value ([1]; Hepatocytes Human) was “√”. For the same molecule, the “Metabolite Hydrolysis (SN-38) + glucuronidation” value ([1]; Hepatocytes Human) was “—”, the “Metabolite Hydrolysis (SDC-TRAP-0062) + glucuronidation” value ([1]; Hepatocytes Human) was “—” and the “Metabolite Hydrolysis (SDC-TRAP-0063)” value ([1]; Hepatocytes Human) was “√”. The “Metabolite Hydrolysis (SDC-TRAP-0063) + glucuronidation” value ([1]; Hepatocytes Human) was “√”, the “Metabolite Glucuronidation” value ([1]; Hepatocytes Human) was “—” and the “Metabolite Hydrolysis (SN-38)” value ([1]; Hepatocytes Monkey) was “—”. For the same molecule, the “Metabolite Hydrolysis (SDC-TRAP-0062)” value ([1]; Hepatocytes Monkey) was “—”, the “Metabolite Hydrolysis (SN-38) + glucuronidation” value ([1]; Hepatocytes Monkey) was “√” and the “Metabolite Hydrolysis (SDC-TRAP-0062) + glucuronidation” value ([1]; Hepatocytes Monkey) was “√”. The “Metabolite Hydrolysis (SDC-TRAP-0063)” value ([1]; Hepatocytes Monkey) was “—”, the “Metabolite Hydrolysis (SDC-TRAP-0063) + glucuronidation” value ([1]; Hepatocytes Monkey) was “√” and the “Metabolite Glucuronidation” value ([1]; Hepatocytes Monkey) was “√”. For the same molecule, the “Metabolite Hydrolysis (SN-38)” value ([1]; Hepatocytes Mouse) was “√”, the “Metabolite Hydrolysis (SDC-TRAP-0062)” value ([1]; Hepatocytes Mouse) was “√” and the “Metabolite Hydrolysis (SN-38) + glucuronidation” value ([1]; Hepatocytes Mouse) was “—”. The “Metabolite Hydrolysis (SDC-TRAP-0062) + glucuronidation” value ([1]; Hepatocytes Mouse) was “—”, the “Metabolite Hydrolysis (SDC-TRAP-0063)” value ([1]; Hepatocytes Mouse) was “—” and the “Metabolite Hydrolysis (SDC-TRAP-0063) + glucuronidation” value ([1]; Hepatocytes Mouse) was “√”. The “Metabolite Glucuronidation” value ([1]; Hepatocytes Mouse) was “√”, the “Metabolite Hydrolysis (SN-38)” value ([1]; Hepatocytes Rat) was “—” and the “Metabolite Hydrolysis (SDC-TRAP-0062)” value ([1]; Hepatocytes Rat) was “√”. The “Metabolite Hydrolysis (SN-38) + glucuronidation” value ([1]; Hepatocytes Rat) was “—”, the “Metabolite Hydrolysis (SDC-TRAP-0062) + glucuronidation” value ([1]; Hepatocytes Rat) was “—” and the “Metabolite Hydrolysis (SDC-TRAP-0063)” value ([1]; Hepatocytes Rat) was “—”. For the same molecule, the “Metabolite Hydrolysis (SDC-TRAP-0063) + glucuronidation” value ([1]; Hepatocytes Rat) was “√” and the “Metabolite Glucuronidation” value ([1]; Hepatocytes Rat) was “—”.

For `CCNC(=O)c1nnc(-c2cc(C(C)C)c(O)cc2O)n1-c1ccc(S(=O)(=O)N2CCC(C(=O)N3CCN(C(=O)Oc4ccc5nc6c(c(CC)c5c4)Cn4c-6cc5c(c4=O)COC(=O)C5(O)CC)C(C)C3)CC2)cc1` (stereo not drawn) [SDC-TRAP-0396, 4,11-diethyl-4-hydroxy-3,14-dioxo-3,4,12,14-tetrahydro-1H-pyrano[3′,4:6,7]indolizino[1,2-b]quinolin-9-yl 4-(1-((4-(3-(2,4-dihydroxy-5-isopropylphenyl)-5-(ethylcarbamoyl)-4H-1,2,4-triazol-4-yl)phenyl)sulfonyl)piperidine-4-carbonyl)-2-methylpiperazine-1-carboxylate], the “% Remaining (1 h)” value [3] was 71.6%.

For `CCc1c2c(nc3ccc(O)cc13)-c1cc3c(c(=O)n1C2)COC(=O)C3(CC)OC(=O)N1CCN(C(=O)C2CCN(c3ccc(-n4c(O)nnc4-c4cc(C(C)C)c(O)cc4O)cc3)CC2)CC1` (stereo not drawn), the “% Remaining (1 h)” value [3] was 108%.
